Data: article PMC4467398, “Preclinical antitumor activity of ST7612AA1: a new oral thiol-based histone deacetylase (HDAC) inhibitor” (Oncotarget, 2014)

System: DOHH2 and TMD8 DLBCL cells
Assay: Gene expression profiling (HumanHT-12 v4 BeadChip, limma), ST7612AA1 300 nM 8 hrs vs DMSO
Format: cell-based, human

## CC(=O)SCCCCC[C@H](NC(=O)[C@H]1CCC(=O)N1)C(=O)Nc1ccccc1 [ST7612AA1]
300 nM 8 hrs
  AveExpr.ST7612 TANK (probe ILMN_1715069): 8.21E-01
  AveExpr.ST7612 TBC1D7 (probe ILMN_1661622): 7.33E-01
  AveExpr.ST7612 TBC1D16 (probe ILMN_1758457): 7.24E-01
  AveExpr.ST7612 TCEA2 (probe ILMN_1665526): 8.50E-01
  AveExpr.ST7612 TCEAL3 (probe ILMN_1734190): 7.88E-01
  AveExpr.ST7612 TCTN1 (probe ILMN_1685124): 7.81E-01
  AveExpr.ST7612 TESK2 (probe ILMN_1654370): 8.37E-01
  AveExpr.ST7612 TMEM14A (probe ILMN_1785191): 7.29E-01
  AveExpr.ST7612 TMEM49 (probe ILMN_1692754): 8.49E-01
  AveExpr.ST7612 TMEM154 (probe ILMN_2088124): 6.89E-01
  AveExpr.ST7612 TMOD2 (probe ILMN_3250273): 7.57E-01
  AveExpr.ST7612 TPRG1L (probe ILMN_1727479): 7.86E-01
  AveExpr.ST7612 TPST1 (probe ILMN_1651950): 7.51E-01
  AveExpr.ST7612 TPST2 (probe ILMN_1695432): 7.18E-01
  AveExpr.ST7612 TRAFD1 (probe ILMN_1758250): 8.52E-01
  AveExpr.ST7612 UBE2A (probe ILMN_2307455): 7.18E-01
  AveExpr.ST7612 UBTD1 (probe ILMN_1794914): 8.56E-01
  AveExpr.ST7612 UCP2 (probe ILMN_1685625): 7.30E-01
  AveExpr.ST7612 UNC84A (probe ILMN_1772316): 7.21E-01
  AveExpr.ST7612 UPLP (probe ILMN_3236765): 7.46E-01
  AveExpr.ST7612 VASH2 (probe ILMN_1692698): 7.31E-01
  AveExpr.ST7612 VPS8 (probe ILMN_1678268): 7.47E-01
  AveExpr.ST7612 WDR19 (probe ILMN_1655117): 7.77E-01
  AveExpr.ST7612 YPEL5 (probe ILMN_1711069): 6.99E-01
  AveExpr.ST7612 ZDHHC8 (probe ILMN_1789492): 8.85E-01
  AveExpr.ST7612 ZNF775 (probe ILMN_1691702): 7.39E-01
300 nM 8 hrs vs DMSO
  log ratio 1999-08-31 (probe ILMN_1659953): 8.50E-01
  log ratio (probe ILMN_1816244): 7.08E-01
  log ratio (probe ILMN_1827736): 8.76E-01
  log ratio (probe ILMN_1909886): 7.98E-01
  log ratio AACS (ILMN_1698554): 6.24E-01
  log ratio ABCA7 (probe ILMN_1743205): 7.64E-01
  log ratio ABCC4 (ILMN_1788457): -8.19E-01
  log ratio ABCC4 (ILMN_2194009): -8.58E-01
  log ratio ABCE1 (ILMN_2330267): -7.82E-01
  log ratio ACAT2 (ILMN_1708672): -1.01E+00
  log ratio ACOT7 (ILMN_2332250): 6.55E-01
  log ratio ACSL3 (ILMN_2360705): 5.95E-01
  log ratio ACSL5 (ILMN_1705247): -1.24E+00
  log ratio ACSL5 (ILMN_2370882): -9.69E-01
  log ratio ADARB1 (probe ILMN_1679797): 7.60E-01
  log ratio ADD3 (ILMN_1787378): 6.27E-01
  log ratio ADD3 (ILMN_1814526): 6.45E-01
  log ratio ADD3 (ILMN_2311278): 6.14E-01
  log ratio ADIPOR2 (ILMN_2224833): 6.41E-01
  log ratio ADNP2 (ILMN_2080751): 6.66E-01
  log ratio ADRBK1 (ILMN_3307926): -6.13E-01
  log ratio ADSS (ILMN_2092664): -8.15E-01
  log ratio AFMID (ILMN_1707551): 6.36E-01
  log ratio AGTPBP1 (ILMN_1718071): 6.75E-01
  log ratio AKAP8 (ILMN_1741572): -8.28E-01
  log ratio AKAP13 (ILMN_2396956): 6.04E-01
  log ratio ALDH2 (probe ILMN_1793859): 8.03E-01
  log ratio ALDH3A2 (ILMN_1794825): 6.08E-01
  log ratio ALG14 (ILMN_2191822): -6.09E-01
  log ratio ALOX5 (probe ILMN_1680996): 8.46E-01
  log ratio ALS2 (ILMN_1750256): 6.20E-01
  log ratio AMOT (probe ILMN_1792409): 7.65E-01
  log ratio AMZ2 (ILMN_1801606): 6.00E-01
  log ratio ANAPC13 (ILMN_1793894): -1.08E+00
  log ratio ANKLE1 (ILMN_3243457): -8.03E-01
  log ratio ANKMY2 (ILMN_1784292): 5.99E-01
  log ratio ANKRD6 (ILMN_2178587): 6.74E-01
  log ratio ANKRD41 (ILMN_2091590): -9.47E-01
  log ratio ANP32B (ILMN_1684293): -9.66E-01
  log ratio APAF1 (probe ILMN_1659463): 8.78E-01
  log ratio APLP1 (probe ILMN_1763834): 8.17E-01
  log ratio APLP2 (ILMN_1710482): 5.98E-01
  log ratio ARFIP1 (ILMN_2403906): 5.95E-01
  log ratio ARG2 (ILMN_1800898): 6.68E-01
  log ratio ARID2 (ILMN_2182335): -6.15E-01
  log ratio ARL6IP1 (probe ILMN_1708416): 6.93E-01
  log ratio ARSB (ILMN_2242937): -9.59E-01
  log ratio ATG2A (probe ILMN_1756006): 8.92E-01
  log ratio ATP6V0C (ILMN_1789005): 6.37E-01
